Test results: patent publication US11130780B2, “Inhibitors of growth factor activation enzymes” (Washington University, priority 2015, dated 2021)
Like-named read-outs stand apart in the source and are kept apart here.

Assays:
[1] = molecular target: T1, HGFA (Homo sapiens, UniProt Q04756); experiment: Fluorescent kinetic enzyme inhibitor assay of HGFA; format: biochemical
T1 construct: His6 tag (N); seven amino acid spacer and seven amino acid TEV cleavage site (N); Honey Bee melittin signal peptide (N); made in house; host or cells: High 5 insect cells (baculovirus; virus raised in Sf9)
T1 sequence (Q04756 373-655): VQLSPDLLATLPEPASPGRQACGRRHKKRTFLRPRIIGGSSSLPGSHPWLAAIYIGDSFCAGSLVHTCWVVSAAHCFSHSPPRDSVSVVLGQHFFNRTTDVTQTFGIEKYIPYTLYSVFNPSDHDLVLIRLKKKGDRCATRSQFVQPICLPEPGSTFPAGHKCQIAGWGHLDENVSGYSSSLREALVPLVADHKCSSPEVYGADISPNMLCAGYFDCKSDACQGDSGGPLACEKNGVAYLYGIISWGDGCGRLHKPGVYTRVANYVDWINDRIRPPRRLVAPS
In short: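 Recombinant His-tagged HGFA residues 373-655 from insect cells, with substrate at Km. Inhibitors in 11-point dilutions, 0-20 μM final, 2% DMSO, fluorescence (ex 380/em 460 nm) followed over time at room temperature. IC50 from four-parameter fit of mean velocity, average of three experiments.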

[2] = molecular target: T2, hepsin (Homo sapiens, UniProt P05981); experiment: Fluorescent kinetic enzyme inhibitor assay of hepsin; format: biochemical; conditions: for IC50: Table 4.1
T2 construct: purchased R&D Systems 4776-SE-010
T2 sequence (P05981 163-417 limits assumed): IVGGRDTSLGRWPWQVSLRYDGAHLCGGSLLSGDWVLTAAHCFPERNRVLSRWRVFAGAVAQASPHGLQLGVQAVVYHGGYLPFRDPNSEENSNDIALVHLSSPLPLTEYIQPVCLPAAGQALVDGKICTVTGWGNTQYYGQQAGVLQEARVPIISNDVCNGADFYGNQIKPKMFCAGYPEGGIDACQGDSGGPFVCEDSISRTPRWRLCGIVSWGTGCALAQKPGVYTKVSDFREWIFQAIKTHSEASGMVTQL
T2 sequence (P05981 45-162 partner limits assumed): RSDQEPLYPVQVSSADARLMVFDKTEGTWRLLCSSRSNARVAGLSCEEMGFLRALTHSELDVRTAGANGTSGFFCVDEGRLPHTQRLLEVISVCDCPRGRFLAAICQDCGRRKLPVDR
In short: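 Fluorescence (ex 380/em 460 nm) followed kinetically at room temperature; IC50 from four-parameter fit of mean velocity versus concentration, averaged over three experiments.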

[3] = Table 4.2, Boc-QLR-AMC substrate, read-out: HGFA Ki
[4] = Table 4.2, Boc-QAR-AMC substrate, read-out: Hepsin Ki

Ki [1, 3]	Ki ([1]; read-out: Ki for HGFA)	fold more potent for hepsin versus HGFA [2]	IC50 [2]	Ki [2, 4]	Ki ([2]; read-out: Ki for hepsin)	SMILES	selectivity among HGFA, matriptase and hepsin [1]
58 nM	–	–	–	0.58 nM	–	CC(=O)N[C@@H](CCCCN)C(=O)N[C@@H](CCC(N)=O)C(=O)N[C@@H](Cc1ccccc1)C(=O)N[C@@H](CCCNC(=N)N)C(=O)c1nccs1 [Compound 5c, Ac-KQFR(SEQ ID NO: 4)-kt]	–
60 nM	–	–	1 nM	–	–	CC(=O)N[C@@H](CCCNC(=N)N)C(=O)N[C@@H](CCC(N)=O)C(=O)N[C@@H](CC(C)C)C(=O)N[C@@H](CCCNC(=N)N)C(=O)c1nccs1 [Compound 5e, Ac-RQLR(SEQ ID NO: 6)-kt]	–
12 nM	–	–	5 nM	–	–	CC(=O)N[C@@H](CCCCN)C(=O)N[C@@H](CCCNC(=N)N)C(=O)N[C@@H](CC(C)C)C(=O)N[C@@H](CCCNC(=N)N)C(=O)c1nccs1 [Compound 5g, Ac-KRLR(SEQ ID NO: 8)-kt]	–
21 nM	–	–	0.3 nM	0.21 nM	–	CC(=O)N[C@@H](Cc1c[nH]c2ccccc12)C(=O)N[C@@H](CCCNC(=N)N)C(=O)N[C@@H](CC(C)C)C(=O)N[C@@H](CCCNC(=N)N)C(=O)c1nccs1 [Compound 5h, Ac-WRLR(SEQ ID NO: 9)-kt]	–
57 nM	–	–	51 nM	–	–	CC(=O)N[C@@H](CO)C(=O)N[C@@H](CCCCN)C(=O)N[C@@H](Cc1ccccc1)C(=O)N[C@@H](CCCNC(=N)N)C(=O)c1nccs1 [Compound 6c, Ac-SKFR(SEQ ID NO: 13)-kt]	HGFA selectivity over both hepsin and matriptase
24 nM	–	–	5 nM	–	–	CC(=O)N[C@@H](CO)C(=O)N[C@@H](CCCNC(=N)N)C(=O)N[C@@H](CC(C)C)C(=O)N[C@@H](CCCNC(=N)N)C(=O)c1nccs1 [Compound 6e, Ac-SRLR(SEQ ID NO: 15)-kt]	HGFA selectivity over both hepsin and matriptase
63 nM	66 nM	–	9 nM	–	1.2 nM	CC(=O)N[C@@H](CO)C(=O)N[C@@H](Cc1c[nH]c2ccccc12)C(=O)N[C@@H](CC(C)C)C(=O)N[C@@H](CCCNC(=N)N)C(=O)c1nccs1 [Compound 6g, Ac-SWLR(SEQ ID NO: 17)-kt]	HGFA selectivity over both hepsin and matriptase

Further lines, the compound ahead of its results:

SMILES	Ki [1, 3]	Ki ([1]; read-out: Ki for HGFA)	fold more potent for hepsin versus HGFA [2]	IC50 [2]	Ki [2, 4]	Ki ([2]; read-out: Ki for hepsin)	selectivity among HGFA, matriptase and hepsin [1]
CC(=O)N[C@@H](CCCCN)C(=O)N[C@@H](CCC(N)=O)C(=O)N[C@@H](CC(C)C)C(=O)N[C@@H](CCCNC(=N)N)C(=O)c1nccs1 [Compound 5, Ac-KQLR(SEQ ID NO: 1)-kt]	70 nM	53 nM	200 fold	2 nM	0.19 nM	–	–
CC(=O)N[C@@H](CO)C(=O)N[C@@H](CCCCN)C(=O)N[C@@H](CC(C)C)C(=O)N[C@@H](CCCNC(=N)N)C(=O)c1nccs1 [Compound 6, Ac-SKLR(SEQ ID NO: 10)-kt]	–	81 nM	70 fold	–	1.2 nM	–	–
N=C(N)c1ccc2cc(OC(=O)c3ccc(N=C(N)N)cc3)ccc2c1 [Nafamostat, reference compound]	25 nM	–	–	2 nM	0.53 nM	–	–
